Patent publication US11912737B2, “19-nor neuroactive steroids and methods of use thereof” (Sage Therapeutics, Inc., priority 2013, dated 2024)

Key:
[1] = target: [35S]-TBPS binding, rat brain cortical membranes; test: Steroid inhibition of [35S]-TBPS binding; details: 3 nM [35S]-TBPS, in the presence of 5 μM GABA
Procedure: Steroid Inhibition of TBPS Binding
[35S]-t-Butylbicylophorothionate (TBPS) binding assays using rat brain cortical membranes in the presence of 5 μM GABA has been described (Gee et al, J. Pharmacol. Exp. Ther. 1987, 241, 346-353; Hawkinson et al, Mol. Pharmacol. 1994, 46, 977-985; Lewin, A. H et al., Mol. Pharmacol. 1989, 35, 189-194).
Briefly, cortices are rapidly removed following decapitation of carbon dioxide-anesthetized Sprague-Dawley rats (200-250 g). The cortices are homogenized in 10 volumes of ice-cold 0.32 M sucrose using a glass/teflon homogenizer and centrifuged at 1500×g for 10 min at 4° C. The resultant supernatants are centrifuged at 10,000×g for 20 min at 4° C. to obtain the P2 pellets. The P2 pellets are resuspended in 200 mM NaCl/50 mM Na—K phosphate pH 7.4 buffer and centrifuged at 10,000×g for 10 min at 4° C. This washing procedure is repeated twice and the pellets are resuspended in 10 volumes of buffer. Aliquots (100 μL) of the membrane suspensions are incubated with 3 nM [^35S]-TBPS and 5 μL aliquots of test drug dissolved in dimethyl sulfoxide (DMSO) (final 0.5%) in the presence of 5 μM GABA. The incubation is brought to a final volume of 1.0 mL with buffer. Nonspecific binding is determined in the presence of 2 μM unlabeled TBPS and ranged from 15 to 25%. Following a 90 min incubation at room temp, the assays are terminated by filtration through glass fiber filters (Schleicher and Schuell No. 32) using a cell harvester (Brandel) and rinsed three times with ice-cold buffer. Filter bound radioactivity is measured by liquid scintillation spectrometry. Non-linear curve fitting of the overall data for each drug averaged for each concentration is done using Prism (GraphPad).
Various compounds are or can be screened to determine their potential as modulators of [^355]-TBPS binding in vitro. These assays are or can be performed in accordance with the above discussed procedures.

[2] = target: α1β2γ2 GABAA receptor (Homo sapiens (Human), UniProt P14867+P47870); details: for Emax at 10 µM: LTK, read-out: GABA (α1β2γ2) Qpatch in Ltk, % efficacy at 10 μM, Qpatch, Ltk cells, 10 μM compound, 2 μM GABA
Procedure: (§1) LTK cells are stably transfected with the α1β2γ2 subunits of the GABA receptor and CHO cells are transiently transfected with the α4β3δ subunits via the Lipofecatamine method. Cells were passaged at a confluence of about 50-80% and then seeded onto 35 mm sterile culture dishes containing 2 ml culture complete medium without antibiotics or antimycotics.
(§2) Whole cell currents were measured with HEKA EPC-10 amplifiers using PatchMaster software or by using the high throughput QPatch platform (Sophion). […] In some cases 0.005% cremophor was also added. Intracellular (pipette) solution contained: KCl 130 mM, MgCl2 1 mM, Mg-ATP 5 mM, HEPES 10 mM, EGTA 5 mM, pH 7.2. During experiments, cells and solutions were maintained at room temperature (19° C.-30° C.). For manual patch clamp recordings, cell culture dishes were placed on the dish holder of the microscope and continuously perfused (1 ml/min) with bath solution. After formation of a Gigaohm seal between the patch electrodes and the cell (pipette resistance range: 2.5 MΩ-6.0 MΩ; seal resistance range: >1 GΩ) the cell membrane across the pipette tip was ruptured to assure electrical access to the cell interior (whole-cell patch-configuration). For experiments using the QPatch system, cells were transferred as suspension to the QPatch system in the bath solution and automated whole cell recordings were performed.
(§3) Cells were voltage clamped at a holding potential of −80 mV. For the analysis of test articles, GABA receptors were stimulated by 2 μM GABA after sequential pre-incubation of increasing concentrations of the test article. Pre-incubation duration was 30 s and the duration of the GABA stimulus was 2 s. Test articles were dissolved in DMSO to form stock solutions (10 mM). Test articles were diluted to 0.01, 0.1, 1, and 10 μM in bath solution. All concentrations of test articles were tested on each cell. The relative percentage potentiation was defined as the peak amplitude in response to GABA EC20 in the presence of the test article divided by the peak amplitude in response to GABA EC20 alone, multiplied by 100.

[3] = target: α4β3δ GABAA receptor (Homo sapiens (Human), UniProt P28472+P48169); test: Patch clamp electrophysiology of recombinant α4β3δ GABAA receptors (CHO cells); details: read-out: GABA (α4β3δ) Qpatch in CHO, % efficacy at 10 μM
Procedure: as §1, §2, §3

| SMILES | IC50 [1] [nM] | Emax at 10 µM [2] [%] | Emax at 10 µM [3] [%] | GABA (α1β2γ2) Qpatch in Ltk, % efficacy at 10 μM ([2]; Qpatch, Ltk cells, 10 μM compound, 2 μM GABA) |
| --- | --- | --- | --- | --- |
| C[C@@]1(O)CC[C@H]2[C@H](CC[C@@H]3[C@@H]2CC[C@]2(C)[C@@H](C(=O)CN4CCC(O)C4)CC[C@@H]32)C1 (stereo partly drawn) [Entry 4] | 100 to 500 | 100 to 500 | – | – |
| C[C@@]1(O)CC[C@H]2[C@H](CC[C@@H]3[C@@H]2CC[C@]2(C)[C@@H](C(=O)CN4CCN(S(C)(=O)=O)CC4)CC[C@@H]32)C1 [Entry 8] | – | > 500 | > 500 | – |
| CC(=O)N1CCN(CC(=O)[C@H]2CC[C@H]3[C@@H]4CC[C@H]5C[C@](C)(O)[C@@H](C)C[C@@H]5[C@H]4CC[C@]23C)CC1 [Entry 27] | – | 100 to 500 | 100 to 500 | – |
| C[C@H]1C[C@H]2[C@@H](CC[C@@H]3[C@@H]2CC[C@]2(C)[C@@H](C(=O)CN4CCOCC4)CC[C@@H]32)C[C@]1(C)O [Entry 45] | – | 10 to 100 | > 500 | – |
| C[C@]12CC[C@H]3[C@@H](CC[C@@H]4C[C@@](O)(CF)CC[C@@H]43)[C@@H]1CC[C@@H]2C(=O)CN1CCOCC1 [Entry 55] | – | 10 to 100 | – | – |
| C[C@]12CC[C@H]3[C@@H](CC[C@@H]4C[C@@](O)(C(F)F)CC[C@@H]43)[C@@H]1CC[C@@H]2C(=O)CN1CCN(S(C)(=O)=O)CC1 [Entry 56] | – | 100 to 500 | – | – |
| COC[C@@]1(O)CC[C@H]2[C@@H](CC[C@@H]3[C@@H]2CC[C@]2(C)[C@@H](C(=O)CN4CCN(S(C)(=O)=O)CC4)CC[C@@H]32)C1 [Entry 57] | – | – | – | C (“C” ≥500) |
| C[C@@]1(O)CC[C@H]2[C@H](CC[C@@H]3[C@@H]2CC[C@]2(C)[C@@H](C(=O)CN4CCCOCC4)CC[C@@H]32)C1 [Entry 58] | – | > 500 | – | – |
